The term GI50 denotes the concentration at which growth is held to half of that of the control.

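Results reflect a 48-hour exposure of cells in 96-well plates to compound at five concentrations. GI50: concentration for 50% inhibition of growth.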 Activity calls are given as the source filed them. Cut-off read from the data, not from the text of the source: active = GI50 up to about 1.1 µM and inactive = higher. A value given as a limit tells only on which side of the number the result lay.

Among the test systems are HCC 2998; NCI-H522; HOP-92; OVCAR-8; PC-3; MCF7; SK-MEL-5; K562; 786-0; COLO 205; NCI-H23; HCT-15; SN12C; SF-539; U-251; MDA-N; HCT-116; Hs-578T; UO-31; MDA-MB-231.
Assay in all cases: DTP human tumour cell line panel, 48 h

Take `CC(O)(/C=C/c1ccccc1)P(=O)(O)c1ccccc1` (stereo not drawn): the GI50 was 47.2 µM (inactive) in the assay with HCC 2998; > 100 µM (inactive) in the assay with NCI-H522; > 100 µM (inactive) with HOP-92; > 100 µM (inactive) with OVCAR-8; > 100 µM (inactive) with PC-3; > 100 µM (inactive) with MCF7. Further, the GI50 in the assay with SK-MEL-5 was > 100 µM (inactive); in the assay on K562, > 100 µM (inactive); in the assay on 786-0, > 100 µM (inactive); in the assay on COLO 205, > 100 µM (inactive); in the assay on NCI-H23 it was > 100 µM (inactive); in the assay with HCT-15 it was more than 100 µM. In addition, the GI50 in the assay on SN12C, in the assay on SF-539, in the assay with U-251, in the assay with MDA-N, in the assay with HCT-116 and with Hs-578T was > 100 µM (inactive) in each case.
As to `c1ccc(Cc2cc(-c3ccccc3)[nH]n2)cc1`, the GI50 in the assay on NCI-H522 is 16.7 µM (inactive); in the assay on UO-31, 21.8 µM (inactive); in the assay on OVCAR-8, 13.5 µM (inactive); in the assay with MDA-MB-231, 11.5 µM (inactive); with PC-3, 15.8 µM (inactive); in the assay on MCF7, 19.8 µM (inactive). The GI50 is 13 µM (inactive) in the assay with K562; 17 µM (inactive) in the assay on 786-0; 17.4 µM (inactive) with COLO 205; 18.5 µM in the assay on HCT-15; 13.5 µM (inactive) in the assay on SN12C; 13.2 µM (inactive) in the assay with U-251. Further, the GI50 was 25.9 µM (inactive) in the assay on HCT-116 and 15.3 µM (inactive) in the assay on Hs-578T.
For the molecule `COc1ccc(-c2nc3ncccn3c2-c2ccc([S+](C)[O-])cc2)cc1` (stereo not drawn), the GI50 in the assay with HOP-92 was 61.2 µM (inactive); in the assay on UO-31, > 100 µM (inactive); with OVCAR-8, > 100 µM (inactive); in the assay on MDA-MB-231, > 100 µM (inactive); in the assay with PC-3, > 100 µM (inactive); in the assay on MCF7, 28.3 µM (inactive). The GI50 in the assay on SK-MEL-5 was 36.8 µM (inactive); with K562 it was > 100 µM (inactive); with 786-0 it was > 100 µM (inactive); in the assay with COLO 205 it was > 100 µM (inactive); with NCI-H23, > 100 µM (inactive); in the assay on HCT-15, more than 100 µM. Further, the GI50 is > 100 µM (inactive) in the assay on SN12C; > 100 µM (inactive) in the assay on SF-539; > 100 µM (inactive) in the assay with U-251; 36.9 µM (inactive) in the assay on MDA-N; > 100 µM (inactive) in the assay with HCT-116; > 100 µM (inactive) in the assay with Hs-578T.
Take `COC(=O)[C@H](C)NC(=O)[C@H](NS(=O)(=O)c1nc2ccccc2s1)c1ccccc1`: the GI50 in the assay on HCC 2998 is 20.1 µM (inactive); in the assay with HOP-92, 12.6 µM (inactive); in the assay with UO-31, 19.7 µM (inactive); in the assay on OVCAR-8 it was 16.7 µM (inactive); in the assay on MDA-MB-231, 25.9 µM (inactive); in the assay on PC-3 it was 38.8 µM (inactive). For the same molecule, the GI50 with MCF7 is 34 µM (inactive); with SK-MEL-5, 15.8 µM (inactive); in the assay on K562, 94.4 µM (inactive); in the assay with 786-0 it was 29.2 µM (inactive); in the assay on COLO 205, 13.1 µM (inactive); in the assay with NCI-H23, 36.3 µM (inactive). The GI50 in the assay with HCT-15 is 23.3 µM; in the assay on SF-539, 15.6 µM (inactive); in the assay on U-251, 20.5 µM (inactive); in the assay on HCT-116, 44.3 µM (inactive); with Hs-578T, 8.2 µM (inactive).
Turning to `O=c1[nH]c(N/N=C\C(O)C(O)C(O)CO)nc2ccccc12` (stereo not drawn), the GI50 with HOP-92, with UO-31, with OVCAR-8, with PC-3, in the assay on MCF7 and with SK-MEL-5 was > 100 µM (inactive) in each case. For the same molecule, the GI50 in the assay with K562 is > 100 µM (inactive); with 786-0, > 100 µM (inactive); with COLO 205, 83.2 µM (inactive); with NCI-H23 it was > 100 µM (inactive); in the assay on HCT-15 it was more than 100 µM; in the assay with SN12C it was > 100 µM (inactive). The GI50 with SF-539, in the assay with U-251, in the assay on MDA-N, with HCT-116 and in the assay on Hs-578T was > 100 µM (inactive) each time.
With `COC(=O)C1(Cc2ccccc2)Cc2cc3c(cc2C1O)CCC3` (stereo not drawn), the GI50 in the assay with HCC 2998 was 24.9 µM (inactive); with NCI-H522, 17.4 µM (inactive); in the assay on HOP-92 it was 16 µM (inactive); with UO-31, > 10 µM (inactive); with OVCAR-8, 25.6 µM (inactive); in the assay with MDA-MB-231, 18.3 µM (inactive). Also, the GI50 in the assay with PC-3 was 19 µM (inactive); with SK-MEL-5 it was 15.9 µM (inactive); with K562 it was 19.7 µM (inactive); with 786-0 it was 13.6 µM (inactive); with COLO 205, 21.3 µM (inactive); in the assay on NCI-H23, 15 µM (inactive). Besides, the GI50 is 30.5 µM in the assay with HCT-15; 17.7 µM (inactive) with SN12C; 18.2 µM (inactive) in the assay on SF-539; 17.5 µM (inactive) in the assay with MDA-N; 17.9 µM (inactive) in the assay on HCT-116; 13.8 µM (inactive) in the assay on Hs-578T.
Take `O=C(c1ccccc1)N(C(=O)c1ccccc1)c1nc(SCc2ccccc2)ns1`: the GI50 in the assay with HCC 2998 is 22.1 µM (inactive); with NCI-H522, 20 µM (inactive); in the assay with HOP-92, 26.7 µM (inactive); with UO-31, 6.11 µM (inactive); in the assay on OVCAR-8 it was 36.6 µM (inactive); in the assay with PC-3 it was 28.2 µM (inactive). The GI50 in the assay on MCF7 is 30.5 µM (inactive); in the assay on SK-MEL-5, 16.2 µM (inactive); in the assay with K562 it was 29.1 µM (inactive); with 786-0 it was 26.7 µM (inactive); in the assay on COLO 205, 18.7 µM (inactive); with NCI-H23, 24 µM (inactive). The GI50 is 23.9 µM in the assay with HCT-15; 25.2 µM (inactive) in the assay with SN12C; 22.3 µM (inactive) in the assay with SF-539; 19.2 µM (inactive) with U-251; 26.5 µM (inactive) in the assay with MDA-N; 23.8 µM (inactive) in the assay on HCT-116. The GI50 with Hs-578T was 26.1 µM (inactive).
As to `Cc1nn(C(=O)c2ccccc2O)c2c1C(c1ccc(O)cc1O)SC(=N)N2` (stereo not drawn), the GI50 in the assay with HOP-92 was 3.67 µM (inactive); with UO-31, 2.84 µM (inactive); in the assay with OVCAR-8 it was 6.04 µM (inactive); in the assay with MDA-MB-231, 5.14 µM (inactive); with PC-3, 3.22 µM (inactive); with MCF7, 0.472 µM (active). The GI50 was 4.12 µM (inactive) with SK-MEL-5; 2.63 µM (inactive) in the assay on K562; 6.85 µM (inactive) in the assay on 786-0; 9.35 µM (inactive) in the assay on COLO 205; 3.98 µM (inactive) in the assay with NCI-H23; 3.66 µM in the assay with HCT-15. For the same molecule, the GI50 in the assay with SN12C was 9.71 µM (inactive); in the assay with SF-539, 3.77 µM (inactive); in the assay on U-251, 5.58 µM (inactive); in the assay on MDA-N, 5.78 µM (inactive); in the assay on HCT-116 it was 3.83 µM (inactive); in the assay with Hs-578T, 1.91 µM (inactive).
Take `COc1cc2c(cc1OC)-c1c(oc3cc(OC4OC(CO)C(O)C(O)C4O)c(OC)cc3c1=O)C(O)O2` (stereo not drawn): the GI50 with HCC 2998, in the assay on NCI-H522, in the assay on HOP-92, in the assay with UO-31, in the assay with OVCAR-8 and in the assay with MDA-MB-231 was > 100 µM (inactive) throughout. For the same molecule, the GI50 in the assay on PC-3, in the assay with SK-MEL-5, in the assay on K562, in the assay on 786-0, with COLO 205 and in the assay on NCI-H23 was > 100 µM (inactive) each time. The 50% growth inhibitory concentration (GI50) in the assay on HCT-15 is more than 100 µM; in the assay on SN12C, > 100 µM (inactive); in the assay on SF-539, > 100 µM (inactive); in the assay on U-251, > 100 µM (inactive); in the assay with HCT-116, > 100 µM (inactive); with Hs-578T, > 100 µM (inactive).
`O=c1/c(=C/c2ccccn2)sc2nc3cc4c(cc3n12)OCCO4`: the GI50 in the assay with HCC 2998, in the assay on NCI-H522, with HOP-92, with UO-31, in the assay on OVCAR-8 and in the assay on MDA-MB-231 was > 100 µM (inactive) each time. In addition, the GI50 in the assay on PC-3, with SK-MEL-5, in the assay with K562, in the assay with 786-0, in the assay on COLO 205 and in the assay with NCI-H23 was > 100 µM (inactive) in each case. The 50% growth inhibitory concentration (GI50) is more than 100 µM in the assay on HCT-15; > 100 µM (inactive) in the assay on SN12C; > 100 µM (inactive) with U-251; > 100 µM (inactive) in the assay on MDA-N; > 100 µM (inactive) in the assay with HCT-116; > 100 µM (inactive) in the assay on Hs-578T.
For `O=C1/C(=C/c2cccs2)NC(=S)N1CN1CCCCC1`, the GI50 is 71 µM (inactive) with NCI-H522; 77.1 µM (inactive) with HOP-92; 80.2 µM (inactive) in the assay with UO-31; 41 µM (inactive) with OVCAR-8; > 100 µM (inactive) in the assay with MDA-MB-231; 98.2 µM (inactive) in the assay on PC-3. In addition, the GI50 in the assay on MCF7 is 28.2 µM (inactive); in the assay with SK-MEL-5, 35.3 µM (inactive); with K562 it was 52.1 µM (inactive); in the assay on 786-0, 42.3 µM (inactive); with COLO 205, 17.4 µM (inactive); in the assay with NCI-H23 it was > 100 µM (inactive). Also, the GI50 in the assay with HCT-15 was 29.9 µM; in the assay on SN12C it was 97.5 µM (inactive); with U-251, 85.9 µM (inactive); in the assay with MDA-N it was > 100 µM (inactive); with HCT-116, 33 µM (inactive); with Hs-578T, > 100 µM (inactive).
